PubChem BioAssay AID1963839 (Molecular Pharmacology Branch, DTP, NCI, 2024)

System: 817829-284-R-J1-PDC complex spheroid viability
Test: Anticancer human tumor 817829-284-R-J1-PDC patient-derived colon adenocarcinoma cell line growth inhibition [POLQ]
Settings: for IC50: curve of first compound; for viability, T/C: stronger effect = lower value; active = viability on the fitted dose curve at most 10% of control; inactive = the rest
Procedure: Multicellular complex tumor spheroid response to Polymerase (POL) inhibitors (novobiocin, ART-558, RP6685) in combination with a variety of drugs and investigational agents in selected tumor cell lines
The POL inhibitors (novobiocin, ART-558, and RP6685) were evaluated both individually and in combination with standard of care and investigational anticancer small molecules within a complex spheroid model of solid tumors. . Complex spheroids include a stromal component modeled by human endothelial cells (HUVEC) and fibroblasts modeled by human mesenchymal stem cells (MSCs). The concentration ranges selected for each drug and investigational agent were based upon clinically achievable concentrations if the clinical Cmax of the agent was known.
Compounds. The drugs and investigational agents: novobiocin (NSC847541), ART-558 (NSC835418), RP-6685 (NSC848927), peposertib (NSC802822), ceralasertib (NSC780249), elimusertib (NSC800525), camonsertib (NSC841442), AZD-1390 (NSC803789), olaparib (NSC753686), talazoparib (NSC767125), rucaparib (NSC756644), sotorasib (NSC818433), MRTX-1133 (NSC836407), SN-38 (NSC673596), topotecan (NSC609699), epotoside (NSC141540), doxorubicin (NSC123127), gemcitabine (NSC613327), 5-fluorouracil (NSC19893), paclitaxel (NSC125973), vemurafenib (NSC761431), MSA-2 (NSC828583), SN-011 (NSC837082), adavosertib (NSC754352), prexasertib (NSC758257), carboplatin (NSC241240) and oxaliplatin (NSC266046), were obtained from the National Cancer Institute (NCI) Developmental Therapeutics Program Chemical Repository (21). The FDA-approved anticancer drug set is available from the Developmental Therapeutics Program at https://dtp.cancer.gov/organization/dscb/obtaining/. […] The stock solutions were prepared in dimethyl sulfoxide (DMSO, Sigma-Aldrich, St. Louis, MO, cat. D2650), except for the platinum compounds which were prepared in saline (Quality Biological, Gaithersburg, MD, cat. 114-055-101), at 800-fold the tested concentration and stored at -70 degrees C prior to their use. All drugs and investigational agents were tested over a range starting from a high concentration at or near the clinical Cmax and decreasing in half-log increments. If the clinical Cmax for an agent had not been determined, the highest concentration tested was 10 microM, except for SN-38, which was tested at a high concentration of 1 microM.
Cell Culture. All cells were maintained in an incubator at 37 degrees C and 5% CO2 with 95% humidity. The PDC lines were cultured according to standard operating procedures established by the NCI PDMR (https://pdmr.cancer.gov). Table 3 of the manuscript, lists the cell lines along with the number of the three cell types plated to form the mct-spheroids and media for tumor cell growth. After thawing, all PDC lines, except 997537-175-T-J1-PDC and 415267-285-R-J2-PDC, were cultured in Matrigel-coated flasks prepared with a working solution of 1X Ham's F-12 nutrient mix, without supplementation (Thermo Fisher Scientific, cat. 11765054), 100 U/mL penicillin-streptomycin (Thermo Fisher Scientific, cat. 15140122), and 2.5% Matrigel (Corning Inc., Corning, NY, cat. 354248) for the first three passages. The two PDC lines 997537-175-T-J1-PDC and 415267-285-R-J2-PDC were cultured on uncoated flasks. The 857933-349-R-J2-PDC line was cultured in 6C/Colon 1B media containing advanced DMEM/F-12 (Thermo Fisher Scientific, cat. 12634028), 10 mM HEPES (Thermo Fisher Scientific, cat. 15630080), 1X GlutaMAX supplement (Thermo Fisher Scientific, cat. 35050061), 0.1 mg/mL primocin (InvivoGen, San Diego, CA, cat. ant-pm-2), 10% defined fetal bovine serum, heat inactivated (HyClone Laboratories Inc., Logan, UT, cat. SH30070.03HI), 50% L-WRN conditioned media (ATCC, cat. CRL-3276), 1.25 mM N-Acetyl-L-cysteine (Sigma-Aldrich, cat. A9165), 10 mM nicotinamide (Sigma-Aldrich, cat. N0636), 1X B-27 supplement (Thermo Fisher Scientific, cat. 17504044), 1X N-2 supplement (Thermo Fisher Scientific, cat. […]
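Also: spheroids exposed to compounds for 7 days.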
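For viability, T/C in this document: 100% = DMSO vehicle-treated spheroids.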

COc1cc(C2c3cc4c(cc3C(OC3OC5COC(C)OC5C(O)C3O)C3COC(=O)C23)OCO4)cc(OC)c1O (configuration not stated) + COC1C(OC(N)=O)C(O)C(Oc2ccc3c(O)c(NC(=O)c4ccc(O)c(CC=C(C)C)c4)c(=O)oc3c2C)OC1(C)C
inactive: viability, T/C (second compound 0.0316 µM, first compound 0.0316 µM) 47.9% | viability, T/C (second compound 0.0316 µM, first compound 0.1 µM) 31.3% | viability, T/C (second compound 0.0316 µM, first compound 0.316 µM) 16.2% | viability, T/C (second compound 0.0316 µM, first compound 1 µM) 14.4% | viability, T/C (second compound 0.1 µM, first compound 0.0316 µM) 74.1% | viability, T/C (second compound 0.1 µM, first compound 0.1 µM) 31.2% | viability, T/C (second compound 0.1 µM, first compound 0.316 µM) 19.5% | viability, T/C (second compound 0.1 µM, first compound 1 µM) 19.1% | viability, T/C (second compound 0.1 µM, first compound 3.16 µM) 11.8% | viability, T/C (second compound 0.1 µM, first compound 10 µM) 6.51% | viability, T/C (second compound 0.316 µM, first compound 0.0316 µM) 53.6% | viability, T/C (second compound 0.316 µM, first compound 0.1 µM) 34.5% | viability, T/C (second compound 0.316 µM, first compound 0.316 µM) 15.2% | viability, T/C (second compound 0.316 µM, first compound 1 µM) 15.6% | viability, T/C (second compound 1 µM, first compound 0.0316 µM) 79.2% | viability, T/C (second compound 1 µM, first compound 0.1 µM) 42.2% | viability, T/C (second compound 1 µM, first compound 0.316 µM) 15.8% | viability, T/C (second compound 1 µM, first compound 1 µM) 16.3% | viability, T/C (second compound 1 µM, first compound 3.16 µM) 11.7% | viability, T/C (second compound 1 µM, first compound 10 µM) 6.63% | viability, T/C (second compound 3.16 µM, first compound 0.0316 µM) 83.7% | viability, T/C (second compound 3.16 µM, first compound 0.1 µM) 38.8% | viability, T/C (second compound 3.16 µM, first compound 0.316 µM) 18.1% | viability, T/C (second compound 3.16 µM, first compound 1 µM) 19.1% | viability, T/C (second compound 3.16 µM, first compound 3.16 µM) 13.6% | viability, T/C (second compound 3.16 µM, first compound 10 µM) 6.38% | viability, T/C (second compound 10 µM, first compound 0.0316 µM) 68.8% | viability, T/C (second compound 10 µM, first compound 0.1 µM) 36.6% | viability, T/C (second compound 10 µM, first compound 0.316 µM) 17.9% | viability, T/C (second compound 10 µM, first compound 1 µM) 20.1% | viability, T/C (second compound 10 µM, first compound 3.16 µM) 11.6%
0.0387 µM: IC50 (second compound 0.316 µM)
0.0749 µM: IC50 (second compound 3.16 µM)
0.0778 µM: IC50 (second compound 1 µM)
0.0622 µM: IC50 (second compound 0.1 µM)
< 0.0316 µM: IC50 (second compound 0.0316 µM)
active: viability, T/C (second compound 0.0316 µM, first compound 3.16 µM) 11.2% | viability, T/C (second compound 0.0316 µM, first compound 10 µM) 5.8% | viability, T/C (second compound 0.316 µM, first compound 3.16 µM) 12.6% | viability, T/C (second compound 0.316 µM, first compound 10 µM) 6.15% | viability, T/C (second compound 10 µM, first compound 10 µM) 6.29%
0.0614 µM: IC50 (second compound 10 µM)
